Data reported in patent publication US20240197682A1, “METHOD FOR TREATING NEUROLOGICAL DISEASES USING SUPRAMOLECULE POLYMER THERAPEUTICS” (The Regents of the University of California, priority 2022, published 2024).

System: not listed separately
Assay: Parallel Artificial Membrane Permeability Assay (PAMPA)
Format: in vitro ADME
Conditions: PAMPA, pH 5.0, 200 uM test compound, read-out: PAMPA: P_app
Experimental: 5 uL of 1% lecithin (VWR 0579) dissolved in n-dodecane (Sigma Aldrich D221104) was applied to each well of a MultiScreen IP PAMPA filter plate (Millipore MAIPSWU10) and allowed to equilibrate for 5 minutes. 300 uL of PBS was added to the acceptor plate and 150 uL of 200 uM test compound dissolved in PBS and 30% ethanol was added to the donor wells before incubating the donor plate in the acceptor plate for 4 hr at 500 rpm. 100 uL was sampled from the donor and acceptor wells and the concentrations were measured by liquid chromatography-mass spectrometry (SCIEX 4500) or UV-VIS plate reader (BMG).

Papp at 4 hr, 200 uM [×10⁻⁶ cm/s]	Compound
> 50	c1ccc(Cn2nc(-c3ccccc3)c3cnc(-c4cnn[nH]4)nc32)cc1 [Compound 284, 1-benzyl-3-phenyl-6-(1H-1,2,3-triazol-5-yl)-1H-pyrazolo[3,4-d]pyrimidine]

Same assay, conditions: pH 5.0; 200 uM test compound, 4 hr

PAMPA: P_app [×10e−6 cm/sec]	Compound
7.9	CNC(=O)c1cc2c(-c3ccccc3)nn(-c3ccc(F)cc3)c2o1 [Compound 292]

Same assay, conditions: pH 7.4; 200 uM test compound, 4 hr

PAMPA: P_app [×10e−6 cm/sec]	Compound
>50	c1ccc(Cn2nc(-c3ccccc3)c3cnc(-c4cnn[nH]4)nc32)cc1 [Compound 284, 1-benzyl-3-phenyl-6-(1H-1,2,3-triazol-5-yl)-1H-pyrazolo[3,4-d]pyrimidine]
13.5	CNC(=O)c1cc2c(-c3ccccc3)nn(-c3ccc(F)cc3)c2o1 [Compound 292]

Target: T1, YFP-tagged full length 0N4R-Tau P301S aggregates seeded by 416-AD11A lysate (T24 cells) (Homo sapiens, UniProt P10636, P618S)
T1 construct: C-terminally YFP-tagged full length 0N4R-Tau carrying a P301S mutation; expressed in transfected cells
T1 sequence (P10636 1-383 isoform P10636-6 P243S): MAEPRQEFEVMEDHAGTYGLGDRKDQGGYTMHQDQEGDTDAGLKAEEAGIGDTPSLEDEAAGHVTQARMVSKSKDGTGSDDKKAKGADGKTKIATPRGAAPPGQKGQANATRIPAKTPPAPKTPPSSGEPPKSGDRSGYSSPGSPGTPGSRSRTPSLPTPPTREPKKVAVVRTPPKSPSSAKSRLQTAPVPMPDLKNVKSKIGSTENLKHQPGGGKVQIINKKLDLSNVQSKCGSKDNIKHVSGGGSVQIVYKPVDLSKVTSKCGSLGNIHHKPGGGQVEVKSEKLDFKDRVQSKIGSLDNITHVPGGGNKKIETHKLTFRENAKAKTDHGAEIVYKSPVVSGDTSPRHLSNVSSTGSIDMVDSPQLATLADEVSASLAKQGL
Assay: Tau-AD high throughput screening (counter screen) in T24 cells
Format: cell-based
Conditions: T24 cells transfected with 416-AD11A lysate
Experimental: A fragment of the Middle Tempral Gyrus (MTG) from Alzheimer's Disease (AD) patient 2217 was resuspended in 9 volumes of PBS (ml/g of brain) and homogenized 3×12 seconds using a probe homogenizer (Thomas Scientific) with disposable Omni Tip plastic homogenizing probes (Thomas Scinetific Cat No 3409Y77) to generate a 10% brain homogenate (10% AD11-BH). The 10% AD11-BH was clarified of insoluble debris by centrifugation at 800×g for 5 minutes. The resulting supernatant was collected and the protein concentration of this clarified BH (AD11-CBH) was determined by bicinchoninic acid assay (BCA) (Thermo Fisher Cat No. 23227). HEK293 cells stably expressing a C-terminally Clover-tagged truncated 4R-Tau^243-382 transgene containing the P301L and V337M mutations and a C-terminally Ruby-tagged truncated 3R-Tau^243-382 transgene containing the L266V and V337M mutations (128/139 cells) were transfected with the AD11-CBH using lipofectamine 2000 (LF2K) (Thermo Fisher Cat No. 11668500). Briefly, 0.32 μl of LF2K were diluted in 5 μl Opti-MEM (Thermo Scientific Cat No 31985070) per well of a 384-well plate and incubated for 5 min at room temperature (RT). This mixture was added to 0.32 μg of AD11-CBH diluted in 5 μl of PBS per well of a 384-well plate and vortex briefly. The transfection mixture was incubated at room temperature for 90 min. The transfection complexes were subsequently added to a single well of a 384-well plate containing 3500 128/139 cells. After 3 days the cells were harvested, counted and plated at a density of 1 cell/well in a 96-well plate. A clonal cell line containing Clover and Ruby positive Tau aggregates was selected and termed 416-AD11A cells. Following the expansion of these 416-AD11A cells, a cell lysate was prepared by freeze/thaw. The cells from a confluent T175 flask were harvested in 1 ml of PBS containing 1× protease inhibitor cocktail by scraping. The cell suspension was subjected to 4 cycles of freezing in liquid nitrogen for 5 minutes followed by thawing at 37° C. for 5 minutes. The resulting cell lysate was centrifuged at 2000 RPM for 10 minutes to remove the cell debris and the protein concentration of the resulting 416-AD11A lysate was determined by BCA assay and aliquots frozen for future use.
HEK293 cells stably expressing C-terminally YFP-tagged full length 0N4R-Tau carrying a P301S mutation (T24 cells) are plated at a density of 4000 cells per well of a 384-well black walled, clear bottom plate (Greiner Cat No 5678-1091Q) in 60 μl of complete DMEM (DMEM (Corning Cat No 10-013-CV), 10% FBS (VWR Cat No 97068-085, 0.5% Penicilin/streptomycin (Gibco Cat No 15140-122)) containing 0.1 μg/ml Hoechst Dye (Thermo Scientific Cat No H3570). Transfection complexes are prepared by diluting 0.15 μg of 416-AD11A lysate or HEK lysate in 5 μl of PBS per well to be transfected and 0.15 μl of Lipofectamine 2000 (LF2K) (ThermoFisher Cat No 11668500) in 5 μl of Opti-MEM per well to be transfected in separate tubes. The pre-diluted 416-AD11A or HEK lysates and LF2K are subsequently mixed and allowed to incubate for 90 minutes at RT. A 10 μl aliquot of the 416-AD11A or HEK transfection complexes is added to the appropriate wells of the 384-well plate containing the T24 cells using the Bravo liquid handling platform (Agilent). Wells A23-P24 of the 384-well plate are transfected with HEK lysate to act as a reference point for spontaneous aggregation of 0N4R^P301S and for transfection related toxicity. The dilution of test compounds is performed using the Bravo liquid handling platform (Agilent). The control is DMSO in the absence of any test compound. Briefly, 1 μl of each test compound (5 mM stock) in the 384-well test plate was transferred to a 384-well plate (Greiner Cat No 781280) containing 61.5 μl of complete DMEM to generate a working stock of compounds at 80 μM. […]

AD Tau Aggregates (% control)	Compound
93	CC(O)COc1ccc(-c2nc(-n3cc4ccoc4nc3=O)c(-c3ccc(F)cc3)o2)cc1 (centres unmarked) [Compound 182, 3-[5-(4-fluorophenyl)-2-[4-(2-hydroxypropoxy)phenyl]-1,3-oxazol-4-yl]-2H,3H-furo[2,3-d]pyrimidin-2-one]
91	Cc1cc(-c2nc(-n3cc4ccn(C5CC5)c4nc3=O)c(-c3ccc(Cl)c(F)c3)o2)ccn1 [Compound 232, 3-[5-(4-chloro-3-fluorophenyl)-2-(2-methylpyridin-4-yl)-1,3-oxazol-4-yl]-7-cyclopropyl-2H,3H,7H-pyrrolo[2,3-d]pyrimidin-2-one]
85	Cc1cc(-c2nc(-n3cc4ccn(C5CC5)c4nc3=O)c(-c3ccc(F)c(F)c3)o2)ncc1F [Compound 234]
120	CNC(=O)c1ncc2c(N3CCCC3)nn(-c3ccc(F)cc3)c2n1 [Compound 247, 1-(4-fluorophenyl)-N-methyl-3-(pyrrolidin-1-yl)-1H-pyrazolo[3,4-d]pyrimidine-6-carboxamide]
96	CNC(=O)c1ncc2c(-c3cc4c(cnn4C)cc3F)nn(Cc3ccccc3)c2n1 [Compound 253]
100	CNC(=O)c1ncc2c(-c3cccc4c3OC(F)(F)O4)nn(Cc3ccccc3)c2n1 [Compound 254]
100	CNC(=O)c1ncc2c(-c3ccc(F)cc3)nn(C3CCc4ccc(F)cc43)c2n1 (centres unmarked) [Compound 257, 1-(6-fluoro-2,3-dihydro-1H-inden-1-yl)-3-(4-fluorophenyl)-N-methyl-1H-pyrazolo[3,4-d]pyrimidine-6-carboxamide]

Second part, the compound before the results:

Compound	AD Tau Aggregates (% control)
CNc1nc(=O)n(-c2nc(-c3ccc(Cl)cc3)oc2-c2ccc(Cl)c(F)c2)cc1F.Cl [Compound 126, 1-(5-(4-chloro-3-fluorophenyl)-2-(4-chlorophenyl)oxazol-4-yl)-5-fluoro-4-(methylamino)pyrimidin-2(1H)-one hydrochloride]	93
CCNc1nc(=O)n(-c2nc(-c3ccc(Cl)cc3)oc2-c2ccc(Cl)c(F)c2)cc1F [Compound 127, 1-(5-(4-chloro-3-fluorophenyl)-2-(4-chlorophenyl)oxazol-4-yl)-4-(ethylamino)-5-fluoropyrimidin-2(1H)-one]	105
CNc1nc(=O)n(-c2nc(-c3ccc(C)s3)oc2-c2ccc(Cl)c(F)c2)cc1F [Compound 132, 1-(5-(4-chloro-3-fluorophenyl)-2-(5-methylthiophen-2-yl)oxazol-4-yl)-5-fluoro-4-(methylamino)pyrimidin-2(1H)-one]	95
CNc1nc(=O)n(-c2nc(-c3cccc(C)c3)oc2-c2ccc(F)c(F)c2)cc1F.Cl [Compound 133, 1-(5-(3,4-difluorophenyl)-2-(m-tolyl)oxazol-4-yl)-5-fluoro-4-(methylamino)pyrimidin-2(1H)-one hydrochloride]	92
CNc1nc(=O)n(-c2nc(-c3cccc(C)c3)oc2-c2cc(Cl)cs2)cc1F [Compound 135, 1-(5-(4-chlorothiophen-2-yl)-2-(m-tolyl)oxazol-4-yl)-5-fluoro-4-(methylamino)pyrimidin-2(1H)-one]	100
CC(=O)Cc1nccc2cc(-c3nc(-n4ccc5cccnc5c4=O)c(-c4ccc(C(F)(F)F)cc4)o3)ccc12 [Compound 176, 7-(2-(1-(2-oxopropyl)isoquinolin-6-yl)-5-(4-(trifluoromethyl)phenyl)oxazol-4-yl)-1,7-naphthyridin-8(7H)-one]	96
